Marks after values point to notes of the source that are not given here. Non-standard residues stand in square brackets, D forms with d. No end group written: not given here. *: point of attachment. Boc = CC(C)(C)OC(=O)*; OtBu = CC(C)(C)O*; tBu = CC(C)(C)*
Tests used:
Assay type in all cases: biochemical
[1] = tested on: enzyme derived from Sphingobacterium sp. strain FERM BP-8124; assay: Substrate specificity of enzyme derived from Sphingobacterium sp.; details: carboxy component 100 mM, amine component 150 mM, 0.33 units enzyme, pH 9.0, 25° C., 1.5 hours
[2] = tested on: peptide-forming enzyme from Empedobacter brevis strain FERM BP-8113; assay: Substrate specificity of enzyme (peptide production from carboxy and amine components); parameters: key to Formed peptide (mM): +: those peptides for which production was confirmed but which were unable to be quantified due to the absence of a standard; a trace amount; details: pH 9.0, 25° C.; for Formed peptide / Formed peptide (mM): L-amino acid methyl ester hydrochloride 100 mM, 3 hours; for Formed peptide: L-amino acid 150 mM; for Formed peptide (mM): 150 mM L-glutamine; for L-Ala-L-Gln formed: carboxy component 100 mM, 200 mM L-glutamine, 2 hours
Description: Ester specificity was examined in the case of using L-amino acid ester for the carboxy component. […] HCl represents hydrochloride in Table 4.
Peptide production was examined in the case of using L-alanine methyl ester for the carboxy component and using various L-amino acids for the amine component.
Peptide production was examined in the case of using various types of L-amino acid methyl esters for the carboxy component and using L-glutamine for the amine component. […] Furthermore, Tween-80 was added to the reaction system to a final concentration of 0.1% in the case of using L-Trp-OMe and L-Tyr-OMe.

[3] = tested on: peptide-forming enzyme from Empedobacter brevis strain FERM BP-8113; assay: as above; parameters: key to Formed peptide (mM): +: those peptides for which production was confirmed but which were unable to be quantified due to the absence of a standard; a trace amount
[4] = carboxy component 100 mM, amine component 150 mM, 0.1 unit enzyme, 25° C., reaction time 2 hr
[5] = L or D amino acid methyl ester hydrochloride 100 mM, L or D amino acid 150 mM, pH 9.0, 25° C., 3 hours
[6] = carboxy component 100 mM, amine component 150 mM, 0.1 unit enzyme, 25° C., reaction time 3 hr
[7] = β-amino acid ester or β-amino acid, carboxy component 100 mM, amine component 150 mM, pH 9.0, 25° C., 3 hours
[8] = L-alanine methyl ester hydrochloride 100 mM, L-amino acid amide hydrochloride 150 mM, pH 9.0, 25° C., 3 hours
[9] = carboxy component 100 mM, peptide amine component 150 mM, pH 9.0, 25° C., 3 hours
[10] = carboxy component 40 mM, amine component 40 mM, 0.1 unit enzyme, 25° C., reaction time 3 hr

Compound: L-Val-L-Ser
- Produced peptide ([1]; Table 15-3): 31.9 mM
- Formed peptide [2]: 30.8 mM

Compound: β-L-Asp-L-Gln
- Formed peptide (mM) [2]: tr

Compound: H-Asp(OtBu)-Gln-OH
- Produced peptide [3, 4]: 0.9 mM

Compound: L-Leu-L-Gln
- Formed peptide (mM) [2]: +

Compound: D-Val-L-Ser
- Formed peptide [3, 5]: 0.6 mM

Compound: D-Ala-D-Ser
- Produced peptide ([1]; Table 15-1): 5.5 mM
- Formed peptide [3, 5]: 0.2 mM

Compound: L-Ser-L-Met
- Produced peptide ([1]; Table 15-3): 7.6 mM
- Formed peptide [2]: 12.5 mM

Compound: D-Ala-D-Gln
- Formed peptide (mM) [3, 5]: tr

Compound: Gly-L-CySH
- Formed peptide [2]: 45.6 mM

Compound: H-Ala-t-Leu-OH
- Produced peptide [3, 6]: 0.4 mM

Compound: H-Ala-p-F-Phe-OH
- Produced peptide ([3]; carboxy component 50 mM, amine component 50 mM, 0.1 unit enzyme, 25° C., reaction time 3 hr): 21.9 mM

Compound: β-Ala-L-Gln
- Formed peptide [3, 7]: 0.6 mM

Compound: L-Ala-Gly-NH2
- Produced peptide ([1]; Table 15-4): 15.1 mM
- Formed peptide [3, 8]: 7.4 mM

Compound: L-Ala-L-Ala
- Produced peptide ([1]; Table 15-1): 13.1 mM
- Produced peptide ([1]; oligopeptide production): 25.6 mM
- Produced peptide [3, 9]: 28.7 mM

Compound: L-Asn-L-Gln
- Formed peptide (mM) [2]: +

Compound: L-CySH-L-Gln
- Formed peptide (mM) [2]: +

Compound: L-Thr-D-Ser
- Formed peptide [3, 5]: 6.9 mM

Compound: D-Ala-L-Ser
- Produced peptide ([1]; Table 15-1): 24.1 mM
- Formed peptide [3, 5]: 20.3 mM

Compound: β-Ala-L-Ser
- Formed peptide [3, 7]: 3.2 mM

Compound: β-Ala-L-α-Ala
- Formed peptide (mM) [3, 7]: tr

Compound: D-Val-D-Ser
- Formed peptide [3, 5]: 0.5 mM

Compound: L-Thr-L-Ser
- Formed peptide [2]: 58.2 mM

Compound: L-Ala-L-Tyr
- Produced peptide ([1]; Table 15-1): 11.1 mM

Compound: H-p-NO2-Phe-H-Gln-OH
- Produced peptide [3, 10]: 1.1 mM

Compound: D-Thr-D-Ser
- Formed peptide [3, 5]: 1.1 mM

Compound: H-Ala-Cl—F-Phe-OH
- Produced peptide [3, 10]: 20.8 mM

Compound: CCOC(=O)[C@H](C)N.Cl [L-Alanine ethyl ester•HCl]
- L-Ala-L-Gln formed [2]: 91.5 mM

Compound: L-Ala-L-Ala-L-Ala-L-Ala-L-Ala-L-Ala
- Produced peptide (mM) ([3]; carboxy component 10 mM, amine component 15 mM, pH 9.0, 25° C., 3 hours): 1.4* mM

Compound: L-Ala-D-Ser
- Produced peptide ([1]; Table 15-1): 3.3 mM
- Formed peptide [3, 5]: 5.4 mM

Compound: [dA]-Gly-Phe
- Produced peptide (mM) ([3]; oligopeptide production, amount of enzyme 0.1 unit, pH 9.0, 25° C., 3 hours): Tr

Compound: H-Ala-Ser(tBu)-OH
- Produced peptide [3, 4]: 48.8 mM

Compound: L-Met-D-Ser
- Formed peptide [3, 5]: 1.9 mM

Compound: Gly-Phe-Met
- Produced peptide ([3]; oligopeptide production, amount of enzyme 1.0 unit, pH 9.0, 25° C., 3 hours): 13.3 mM

Compound: L-Ala-L-Ala-L-Gln
- Produced peptide [3, 9]: 15.2 mM

Compound: D-Met-D-Ser
- Formed peptide [3, 5]: 2.7 mM

Compound: L-Ala-L-Leu-L-Ala
- Produced peptide ([1]; oligopeptide production): 40.7 mM
- Produced peptide [3, 9]: 48.3 mM

Compound: L-Ala-L-Ala-L-Ala-L-Ala
- Produced peptide ([1]; oligopeptide production): 30.1 mM
- Produced peptide [3, 9]: 44.5 mM

Compound: L-Phe-L-Ser
- Formed peptide ([3]; L-amino acid amide hydrochloride 100 mM as carboxy component, L-amino acid 150 mM, pH 9.0, 25° C., 3 hours): 0.6 mM

Compound: Gly-Gly-L-Tyr-L-Ala
- Produced peptide [3, 9]: 44.2 mM

Compound: L-Ala-L-Asp
- Produced peptide ([1]; Table 15-1): 2.3 mM

Compound: L-Ala-L-Ala-L-Ala-L-Ala-L-Ala
- Produced peptide ([1]; oligopeptide production): 22.8 mM
- Produced peptide [3, 9]: 34.8 mM

Compound: L-Ala-L-His-L-Ala
- Produced peptide ([1]; oligopeptide production): 58.0 mM
- Produced peptide [3, 9]: 55.9 mM

Compound: Gly-β-Phe
- Formed peptide [3, 7]: 0.4 mM

Compound: D-Met-L-Ser
- Formed peptide [3, 5]: 5.1 mM

Compound: D-Ala-L-Gln
- Formed peptide [3, 5]: 69.3 mM

Compound: H-Ala-Lys(Boc)-OH
- Produced peptide [3, 4]: 51.0 mM

Compound: D-Thr-L-Ser
- Formed peptide [3, 5]: 1.0 mM

Compound: CNC(=O)CN [Gly-methylamine]
- Produced peptide ([1]; Table 15-4): 1.0 mM
- Formed peptide ([3]; amino acid methyl ester hydrochloride 100 mM, methylamine 150 mM, pH 9.0, 25° C., 3 hours): 1.1 mM

Compound: L-Ala-D-Gln
- Formed peptide [3, 5]: 0.3 mM

Compound: L-Ala-L-Phe-NH2
- Produced peptide ([1]; Table 15-4): 27.1 mM
- Formed peptide [3, 8]: 12.2 mM

Compound: H-Ala-Asp(OtBu)-OH
- Produced peptide [3, 4]: 62.6 mM

Compound: L-Val-D-Ser
- Formed peptide [3, 5]: 1.4 mM

Compound: C[C@H](N)C(=O)OC(C)(C)C.Cl [L-Alanine-t-butyl ester•HCl]
- L-Ala-L-Gln formed [2]: 7.5 mM

Compound: L-Lys-L-Met
- Formed peptide [2]: 6.8 mM

Compound: H-Aib-H-Gln-OH
- Produced peptide [3, 6]: 18.8 mM

Compound: D-Ser-D-Ser
- Formed peptide [3, 5]: 2.5 mM

Compound: L-Ala-L-Ala-NH2
- Produced peptide ([1]; Table 15-4): 9.2 mM
- Formed peptide [3, 8]: 8.3 mM

— patent publication US8753841B2, “Enzyme that catalyzes a peptide-forming reaction from a carboxy component and an amine component, microbe producing the same, and a method of producing a dipeptide using the enzyme or microbe” (Ajinomoto Co., Inc., priority 2002, dated 2014)
